According to US6727237B2, “Inhibitors of bacterial NAD synthetase” (priority 1998, dated 2004):
pIC50: −log10 of the molar value. Like-named read-outs stand apart in the source and are kept apart here.

Target: T1, bacterial NAD synthetase enzyme (Bacillus subtilis, UniProt P08164)
T1 sequence (P08164 2-272 limits assumed): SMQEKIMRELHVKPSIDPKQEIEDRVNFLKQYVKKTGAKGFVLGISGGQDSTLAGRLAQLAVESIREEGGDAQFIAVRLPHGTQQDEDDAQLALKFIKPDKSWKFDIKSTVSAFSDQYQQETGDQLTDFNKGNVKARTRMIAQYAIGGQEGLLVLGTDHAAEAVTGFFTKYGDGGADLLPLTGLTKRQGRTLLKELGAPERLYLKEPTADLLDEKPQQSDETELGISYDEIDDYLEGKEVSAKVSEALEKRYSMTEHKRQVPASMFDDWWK
Experiment: biochemical
Assay type: biochemical

[1] = compound at 0.2 mM (Table 312A)
[2] = compound at 0.2 mM (Table 312B)

Fc1cc(F)c2[nH]c(CCCCCCCC[n+]3ccccc3)cc2c1 [Compound 305]
% Inhibition [1]: 54.83%

O=C(OCCCCCCCc1cc2ccc(C(F)(F)F)cc2[nH]1)c1ccncc1 [Compound 697]
% Inhibition [1]: 4.28%

CC(=O)C=Cc1ccc(OCCCCCCCCOC(=O)c2ccc[n+](C)c2)cc1 [compound 1061]
% Inhibition [2]: 61%

CC(=O)c1ccc2[nH]c(CCCCCCC[n+]3ccccc3)cc2c1 [Compound 370]
% Inhibition [1]: 41.34%

O=[N+]([O-])c1cc([N+](=O)[O-])c2[nH]c(CCCC[n+]3ccccc3)cc2c1 [Compound 307]
% Inhibition [1]: 4.40%

CC(=O)c1cccc(OCCCCCCCCOC(=O)Cc2ccc([N+](C)(C)C)cc2)c1 [Compound 1089]
% Inhibition [2]: 56%

FC(F)(F)c1ccc2[nH]c(CCCCCCCC[n+]3ccc4ccccc4c3)cc2c1 [Compound 581]
% Inhibition [1]: 21.66%

COC(=O)c1ccc2[nH]c(CCCCCC[n+]3cccc4ccccc43)cc2c1 [Compound 489]
% Inhibition [1]: 5.87%

CN(C)c1ccc(CC(=O)OCCCCCCCCOc2ccc(C(=O)c3ccccc3)cc2)cc1 [Compound 1040]
% Inhibition [2]: 3%

FC(F)(F)c1ccc2[nH]c(CCCCCCCC[n+]3cccc4ccccc43)cc2c1 [Compound 473]
% Inhibition [1]: 15.06%

CC(=O)c1ccc2[nH]c(CCCCCCCCOC(=O)c3cccc([N+](C)(C)C)c3)cc2c1 [Compound 879]
pIC50: 4.40
inhibition at 100 µM: 99.6%

CC(=O)c1ccccc1OCCCCCCCCOC(=O)c1ccc[n+](C)c1 [compound 1056]
% Inhibition [2]: 18%

CC(C)c1ccc2[nH]c(CCCCCCCCOC(=O)c3ccc[n+](C)c3)cc2c1 [Compound 921]
pIC50: 4.60
inhibition at 100 µM: 96.7%

O=C(c1ccccc1)c1ccc2[nH]c(CCCC[n+]3ccc4ccccc4c3)cc2c1 [Compound 571]
% Inhibition [1]: 17.47%

Fc1cc(F)c2[nH]c(CCCCC[n+]3ccccc3)cc2c1 [Compound 302]
% Inhibition [1]: 21.48%

Fc1ccc2[nH]c(CCCCCC[n+]3ccc4ccccc4c3)cc2c1 [Compound 561]
% Inhibition [1]: 24.70%

O=C(O)c1ccc2[nH]c(CCCCCCC[n+]3ccccc3)cc2c1 [Compound 388]
% Inhibition [1]: 25.86%

FC(F)(F)c1ccc2[nH]c(CCC[n+]3ccc4ccccc4c3)cc2c1 [Compound 576]
% Inhibition [1]: 2.05%

C[n+]1cccc(CC(=O)OCCCCCCCc2cc3cc(C(=O)c4ccccc4)ccc3[nH]2)c1 [Compound 941]
pIC50: 4.30
inhibition at 100 µM: 100%

O=[N+]([O-])c1ccc2[nH]c(CCCCCCCC[n+]3ccccc3)cc2c1 [Compound 335]
% Inhibition [1]: 3.28%

CN(C)c1ccc(CC(=O)OCCCCCCCCOc2cccc([N+](=O)[O-])c2)cc1 [Compound 1036]
% Inhibition [2]: 6%

COc1ccc2c(ccn2CCCCOC(=O)c2ccc[n+](C)c2)c1 [Compound 760]
% Inhibition [1]: 2.28%

COc1ccc2c(ccn2CCCCCOC(=O)c2ccc[n+](C)c2)c1 [Compound 761]
% Inhibition [1]: 6.88%

CC(=O)c1ccc2[nH]c(CCCCCCC[n+]3cccc4ccccc43)cc2c1 [Compound 478]
% Inhibition [1]: 9.76%

COc1ccccc1OCCCCCCCCOC(=O)Cc1ccc([N+](C)(C)C)cc1 [Compound 1087]
pIC50: 4.40
inhibition at 200 µM: 61%

COC(=O)c1cc2ccccc2n1CCCCCCCCOC(=O)c1ccc[n+](C)c1 [Compound 973]
pIC50: 4.35
inhibition at 100 µM: 97.8%

FC(F)(F)c1ccc2cc(CCCCC[n+]3ccccc3)[nH]c2c1 [Compound 290]
% Inhibition (compound at 0.1 mM (Table 314)): 12.89%

Cc1ccc2[nH]c(CCCCCCC[n+]3ccc4ccccc4c3)cc2c1 [Compound 514]
% Inhibition [1]: 22.32%

CC(=O)c1ccccc1OCCCCCCCCOC(=O)Cc1ccc([N+](C)(C)C)cc1 [Compound 1076]
pIC50: 3.87
inhibition at 200 µM: 74%

C[N+](C)(C)c1ccc(C(=O)OCCCCc2cc3cc(C(=O)c4ccccc4)ccc3[nH]2)cc1 [Compound 895]
% Inhibition (compound at 0.25 mM): 95.7%

O=[N+]([O-])c1ccc2[nH]c(CCCCCCC[n+]3ccccc3)cc2c1 [Compound 334]
% Inhibition [1]: 41.67%

COc1ccc2c(ccn2CCCCCCOC(=O)c2ccc[n+](C)c2)c1 [Compound 762]
% Inhibition [1]: 40.05%

Cc1ccc2[nH]c(CCCCCCCC[n+]3ccc4ccccc4c3)cc2c1 [Compound 515]
% Inhibition [1]: 30.39%

c1ccc(C(c2ccccc2)(c2ccccc2)c2ccc3[nH]c(CCCCCCC[n+]4cccc5ccccc54)cc3c2)cc1 [Compound 448]
% Inhibition [1]: 2.92%

CC(=O)c1ccc(OCCCCCCCCOC(=O)c2ccc[n+](C)c2)cc1 [compound 1058]
% Inhibition [2]: 18%

CC(C)c1ccc2[nH]c(CCCCCCC[n+]3cccc4ccccc43)cc2c1 [Compound 430]
% Inhibition [1]: 1.20%

COC(=O)c1ccc2[nH]c(CCC[n+]3ccc4ccccc4c3)cc2c1 [Compound 594]
% Inhibition [1]: 2.77%

O=C(O)c1ccc2[nH]c(CCCCCCC[n+]3cccc4ccccc43)cc2c1 [Compound 496]
% Inhibition [1]: 36.97%

C[N+](C)(C)c1ccc(CC(=O)OCCCCCCCn2ccc3ccccc32)cc1 [Compound 980]
% Inhibition [1]: 74.86%

FC(F)(F)c1ccc2[nH]c(CCCCCCCC[n+]3ccccc3)cc2c1 [Compound 365]
% Inhibition [1]: 16.45%

C[N+](C)(C)c1ccc(C(=O)OCCCCCCCc2cc3ccc(C(F)(F)F)cc3[nH]2)cc1 [Compound 884]
pIC50: 4.35

CCCCc1ccc2[nH]c(CCCCC[n+]3ccccc3)cc2c1 [Compound 314]
% Inhibition (compound at 0.1 mM (Table 314)): 9.19%

COC(=O)c1cc2cc(OCc3ccccc3)ccc2n1CCCCCCCCCOC(=O)Cc1ccc(N(C)C)cc1 [Compound 966]
% Inhibition (compound at 0.05 mM): 8.25%

COC(=O)c1cc2cc(OCc3ccccc3)ccc2n1CCCCCCCCCOC(=O)c1ccc[n+](C)c1 [Compound 978]
% Inhibition (compound at 0.1 mM (Table 314)): 80.31%

C[n+]1cccc(CC(=O)OCCCCCCCCc2cc3ccc(C(F)(F)F)cc3[nH]2)c1 [Compound 930]
% Inhibition (compound at 0.25 mM): 96.7%

O=C(O)c1ccc2[nH]c(CCCCCCCC[n+]3ccccc3)cc2c1 [Compound 389]
% Inhibition [1]: 12.44%

FC(F)(F)c1ccc2cc(CCCCCCCC[n+]3ccc4ccccc4c3)[nH]c2c1 [Compound 509]
% Inhibition [1]: 78.00%

C[N+](C)(C)c1cccc(C(=O)OCCCCc2cc3ccc(C(F)(F)F)cc3[nH]2)c1 [Compound 868]
% Inhibition (compound at 0.25 mM): 13.5%

C[n+]1cccc(C(=O)OCCCCCCCCc2cc3cc(C(=O)c4ccccc4)ccc3[nH]2)c1 [Compound 927]
% Inhibition (compound at 0.25 mM): 93.1%

CC(=O)c1cccc(OCCCCCCCCOC(=O)c2ccc[n+](C)c2)c1 [compound 1069]
% Inhibition [2]: 36%

Fc1cc(F)c2[nH]c(CCCCCCC[n+]3ccc4ccccc4c3)cc2c1 [Compound 520]
% Inhibition [1]: 55.83%

O=C(O)c1ccc2[nH]c(CCCC[n+]3ccccc3)cc2c1 [Compound 385]
% Inhibition [1]: 61.62%

CC(C)c1ccc2[nH]c(CCCCCCCC[n+]3ccccc3)cc2c1 [Compound 323]
% Inhibition [1]: 28.08%

COc1cccc(OCCCCCCCCOC(=O)c2ccc[n+](C)c2)c1 [compound 1057]
% Inhibition [2]: 59%

CCCCc1ccc2[nH]c(CCC[n+]3ccc4ccccc4c3)cc2c1 [Compound 528]
% Inhibition [1]: 65.81%

CC(=O)c1ccc2[nH]c(CCCC[n+]3ccc4ccccc4c3)cc2c1 [Compound 583]
% Inhibition [1]: 31.37%

C[N+](C)(C)c1ccc(CC(=O)OCCCCCCCCOc2ccccc2[N+](=O)[O-])cc1 [Compound 1075]
pIC50 (NAD synthetase enzyme inhibition, read-out: IC50 of Compounds): 4.19
% Inhibition [2]: 79%

C[n+]1cccc(C(=O)OCCCOc2ccccc2C=CC(=O)c2ccccc2)c1 [compound 1066]
inhibition at 200 µM: 70%

COC(=O)c1cc2ccccc2n1CCCCCCOC(=O)c1ccc[n+](C)c1 [Compound 971]
% Inhibition (compound at 0.1 mM (Table 314)): 100.00%

O=[N+]([O-])c1cc([N+](=O)[O-])c2[nH]c(CCCCCCC[n+]3cccc4ccccc43)cc2c1 [Compound 418]
% Inhibition [1]: 5.95%

O=C(c1ccccc1)c1ccc2[nH]c(CCCCCCCC[n+]3cccc4ccccc43)cc2c1 [Compound 467]
% Inhibition [1]: 15.08%

O=C(O)c1ccc2[nH]c(CCCC[n+]3ccc4ccccc4c3)cc2c1 [Compound 601]
% Inhibition [1]: 2.22%

CC(C)c1ccc2[nH]c(CCCC[n+]3ccc4ccccc4c3)cc2c1 [Compound 535]
% Inhibition [1]: 12.61%

C[N+](C)(C)c1ccc(CC(=O)OCCCCCCCCOc2cccc([N+](=O)[O-])c2)cc1 [Compound 1085]
pIC50: 3.86
inhibition at 200 µM: 87%

CC(=O)c1ccc2[nH]c(CCCCOC(=O)c3ccc[n+](C)c3)cc2c1 [Compound 922]
% Inhibition (compound at 0.25 mM): 87.4%

c1ccc(-c2ccc3[nH]c(CCCC[n+]4ccccc4)cc3c2)cc1 [Compound 325]
% Inhibition (compound at 0.1 mM (Table 314)): 53.22%

C[n+]1cccc(C(=O)OCCCCCCCCn2ccc3ccccc32)c1 [Compound 969]
% Inhibition [1]: 83.16%

CC(C)c1ccc2[nH]c(CCCCCCCCOC(=O)Cc3ccc[n+](C)c3)cc2c1 [Compound 936]
pIC50: 4.22
inhibition at 100 µM: 97.8%

c1ccc(-c2ccc3[nH]c(CCCCCCC[n+]4ccccc4)cc3c2)cc1 [Compound 328]
% Inhibition (compound at 0.1 mM (Table 314)): 47.85%

C[n+]1cccc(C(=O)OCCCCCCCCc2cc3cc(Oc4ccccc4)ccc3[nH]2)c1 [Compound 918]
% Inhibition (compound at 0.25 mM): 98.6%

COC(=O)c1cc2ccccc2n1CCCCCCCCCOC(=O)c1ccc[n+](C)c1 [Compound 974]
pIC50: 4.46
inhibition at 100 µM: 88.2%

C[n+]1cccc(C(=O)OCCCCCCn2ccc3ccccc32)c1 [Compound 967]
% Inhibition [1]: 19.51%

C[n+]1cccc(C(=O)OCCCCCCCCOc2ccc(C=CC(=O)c3ccccc3)cc2)c1 [compound 1063]
% Inhibition [2]: 32%
